Laboratory results reported in patent publication US9732075B2, “Benzimidazole-proline derivatives” (IDORSIA PHARMACEUTICALS LTD, priority 2012, dated 2017).
pIC50: −log10 of the molar value.

Key:
[1] = target: human orexin-2 receptor (Homo sapiens (Human), UniProt O43614); experiment: In vitro assay: intracellular calcium measurements (FLIPR), antagonistic activity; format: cell-based; details: CHO cells expressing human orexin-2 receptor, orexin-A agonist, geometric mean, read-out: IC50 Ox2
Procedure, shortened: (§1)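 Dye-loaded CHO cells expressing either human orexin receptor are exposed to test antagonist for 120 min, then stimulated with orexin-A at 3 nM.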

[2] = target: human orexin-1 receptor (Homo sapiens (Human), UniProt O43613); experiment: as above; format: cell-based; details: CHO cells expressing human orexin-1 receptor, orexin-A agonist, geometric mean, read-out: IC50 Ox1
Procedure, shortened: as §1

Sequence of human orexin-2 receptor (O43614 whole entry): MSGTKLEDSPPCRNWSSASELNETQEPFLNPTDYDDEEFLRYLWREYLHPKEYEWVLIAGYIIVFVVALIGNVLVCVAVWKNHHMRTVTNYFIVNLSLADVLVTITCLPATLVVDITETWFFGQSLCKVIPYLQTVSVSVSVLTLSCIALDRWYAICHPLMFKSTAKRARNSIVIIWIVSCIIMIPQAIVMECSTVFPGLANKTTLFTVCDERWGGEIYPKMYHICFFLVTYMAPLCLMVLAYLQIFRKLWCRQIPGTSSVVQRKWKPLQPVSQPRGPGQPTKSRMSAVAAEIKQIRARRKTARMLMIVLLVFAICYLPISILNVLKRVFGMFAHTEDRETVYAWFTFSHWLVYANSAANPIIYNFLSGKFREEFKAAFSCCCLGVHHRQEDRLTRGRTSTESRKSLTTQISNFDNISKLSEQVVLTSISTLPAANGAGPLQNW
Sequence of human orexin-1 receptor (O43613 whole entry): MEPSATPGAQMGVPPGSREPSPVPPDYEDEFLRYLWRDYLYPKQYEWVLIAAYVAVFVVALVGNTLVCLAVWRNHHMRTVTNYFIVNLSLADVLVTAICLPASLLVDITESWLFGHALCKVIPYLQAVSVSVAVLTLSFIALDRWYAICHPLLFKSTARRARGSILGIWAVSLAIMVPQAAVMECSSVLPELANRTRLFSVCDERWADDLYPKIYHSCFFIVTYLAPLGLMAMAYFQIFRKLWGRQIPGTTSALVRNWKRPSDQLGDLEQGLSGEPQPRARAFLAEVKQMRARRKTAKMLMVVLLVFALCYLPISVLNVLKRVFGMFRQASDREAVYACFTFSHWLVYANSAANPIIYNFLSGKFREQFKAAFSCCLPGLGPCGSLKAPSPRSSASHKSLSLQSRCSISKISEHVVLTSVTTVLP

Row | Compound | pIC50 [1] | pIC50 [2]
1 | Cc1ccc(C(=O)N2CC[C@H](C)[C@H]2c2nc3c(C)c(Cl)ccc3[nH]2)c(-c2ncccn2)c1 [Ex. 4.174] | 6.88 | 7.92
2 | Cc1c(Cl)ccc2[nH]c([C@@H]3[C@@H](C)CCN3C(=O)c3c(F)cccc3-c3ncccn3)nc12 [Ex. 4.177] | 6.66 | 8.05
3 | Cc1ccc(-c2ncccn2)c(C(=O)N2CC[C@H](C)[C@H]2c2nc3ccc(Cl)c(C)c3[nH]2)c1 [Ex. 4.181] | 6.64 | 8.52
4 | Cc1ccc(-c2ncccn2)c(C(=O)N2CC[C@H](C)[C@H]2c2nc3cc(Cl)cc(C)c3[nH]2)c1 [Ex. 4.182] | 6.16 | 8.15
5 | Cc1ccc(-n2nccn2)c(C(=O)N2CCC[C@@]2(C)c2nc3c(C)c(Cl)ccc3[nH]2)c1 [Ex. 5.2] | 8.30 | 8.70
6 | Cc1ccc(-n2nccn2)c(C(=O)N2CCC[C@@]2(C)c2nc3c(C)cccc3[nH]2)c1 [Ex. 5.6] | 7.23 | 7.49
7 | Cc1ccc(-n2nccn2)c(C(=O)N2CCC[C@@]2(C)c2nc3cc(C(F)(F)F)ccc3[nH]2)c1 [Ex. 5.9] | 7.09 | 8.10
8 | Cc1ccc(-n2nccn2)c(C(=O)N2CCC[C@@]2(C)c2nc3cc(F)c(Cl)cc3[nH]2)c1 [Ex. 5.12] | 6.87 | 7.82
9 | Cc1ccc(-n2nccn2)c(C(=O)N2CCC[C@@]2(C)c2nc3cc(Cl)c(C)cc3[nH]2)c1 [Ex. 5.15] | 7.66 | 8.30
10 | Cc1ccc(-n2nccn2)c(C(=O)N2CCC[C@@]2(C)c2nc3c(C)cc(C)cc3[nH]2)c1 [Ex. 5.16] | 7.74 | 7.80
11 | Cc1ccc(-n2nccn2)c(C(=O)N2CCC[C@@]2(C)c2nc3c(C(F)(F)F)cccc3[nH]2)c1 [Ex. 5.17] | 7.12 | 7.96
12 | Cc1ccc(-n2nccn2)c(C(=O)N2CCC[C@@]2(C)c2nc3cc(OC(F)(F)F)ccc3[nH]2)c1 [Ex. 5.20] | 6.79 | 7.72
13 | COc1cc2nc([C@]3(C)CCCN3C(=O)c3cc(C)ccc3-n3nccn3)[nH]c2cc1OC [Ex. 5.21] | 7.74 | 7.66
14 | Cc1ccc(-n2nccn2)c(C(=O)N2CCC[C@@]2(C)c2nc3cc(F)c(Br)cc3[nH]2)c1 [Ex. 5.23] | 7.10 | 7.82
15 | Cc1ccc(-n2nccn2)c(C(=O)N2CCC[C@@]2(C)c2nc3cc(C(F)(F)F)c(Cl)cc3[nH]2)c1 [Ex. 5.24] | 8.05 | 8.70
16 | Cc1ccc(-n2nccn2)c(C(=O)N2CCC[C@@]2(C)c2nc3c(Cl)cccc3[nH]2)c1 [Ex. 5.26] | 6.71 | 7.41
17 | Cc1ccc(-n2nccn2)c(C(=O)N2CCC[C@@]2(C)c2nc3c(C)c(C)ccc3[nH]2)c1 [Ex. 5.28] | 7.72 | 8.40
18 | Cc1ccc(-n2nccn2)c(C(=O)N2CCC[C@@]2(C)c2nc3c(C(C)C)cccc3[nH]2)c1 [Ex. 5.29] | 7.23 | 7.89

Row | Compound | pIC50 [1] | pIC50 [2]
19 | COc1ccc(OC)c2[nH]c([C@]3(C)CCCN3C(=O)c3cc(C)ccc3-n3nccn3)nc12 [Ex. 5.31] | 6.13 | 7.36
20 | COc1ccc2[nH]c([C@]3(C)CCCN3C(=O)c3cc(C)ccc3-n3nccn3)nc2c1 [Ex. 5.32] | 7.34 | 7.05
21 | Cc1ccc(-n2nccn2)c(C(=O)N2CCC[C@@]2(C)c2nc3c4c(ccc3[nH]2)OCCO4)c1 [Ex. 5.33] | 7.54 | 7.60
22 | Cc1c(Cl)ccc2[nH]c([C@]3(C)CCCN3C(=O)c3cc(Cl)ccc3-n3nccn3)nc12 [Ex. 5.34] | 8.05 | 8.70
23 | Cc1c(Cl)ccc2[nH]c([C@]3(C)CCCN3C(=O)c3cc(OC(F)(F)F)ccc3-n3nccn3)nc12 [Ex. 5.35] | 7.00 | 6.99
24 | COc1ccc(-n2nccn2)c(C(=O)N2CCC[C@@]2(C)c2nc3c(C)c(Cl)ccc3[nH]2)c1F [Ex. 5.37] | 7.80 | 8.00
25 | Cc1ccc(C(=O)N2CCC[C@@]2(C)c2nc3c(C)c(Cl)ccc3[nH]2)c(-n2nccn2)c1 [Ex. 5.38] | 7.92 | 8.40
26 | COc1cc(C(=O)N2CCC[C@@]2(C)c2nc3c(C)c(Cl)ccc3[nH]2)c(-n2nccn2)cc1OC [Ex. 5.39] | 7.70 | 7.44
27 | Cc1c(Cl)ccc2[nH]c([C@]3(C)CCCN3C(=O)c3cc(C(F)(F)F)ccc3-n3nccn3)nc12 [Ex. 5.40] | 7.04 | 7.36
28 | Cc1cc(C(=O)N2CCC[C@@]2(C)c2nc3c(C)c(Cl)ccc3[nH]2)c(-n2nccn2)cc1C [Ex. 5.41] | 8.70 | 8.70
29 | Cc1ccc(-n2cccn2)c(C(=O)N2CCC[C@@]2(C)c2nc3c(C)c(Cl)ccc3[nH]2)c1 [Ex. 5.43] | 7.85 | 8.52
30 | Cc1c(Cl)ccc2[nH]c([C@]3(C)CCCN3C(=O)c3cc(F)ccc3-n3nccn3)nc12 [Ex. 5.45] | 7.92 | 8.30
31 | Cc1c(Cl)ccc2[nH]c([C@]3(C)CCCN3C(=O)c3ccccc3-n3nccn3)nc12 [Ex. 5.46] | 7.85 | 8.22
32 | Cc1ccc(-n2nccn2)c(C(=O)N2CCC[C@@]2(C)c2nc3c(C)c(Cl)ccc3[nH]2)n1 [Ex. 5.47] | 7.82 | 8.30
33 | Cc1cccc2[nH]c([C@]3(C)CCCN3C(=O)c3cc(Cl)ccc3-n3nccn3)nc12 [Ex. 5.49] | 6.94 | 7.07
34 | COc1ccc(-n2nccn2)c(C(=O)N2CCC[C@@]2(C)c2nc3c(C)cccc3[nH]2)c1 [Ex. 5.50] | 7.48 | 7.31
35 | Cc1cccc2[nH]c([C@]3(C)CCCN3C(=O)c3ccccc3-n3nccn3)nc12 [Ex. 5.52] | 7.37 | 6.97

Continued by rising pIC50 [1], values first:

Row | pIC50 [1] | pIC50 [2] | Compound
36 | 5.20 | 7.89 | Cc1ccc(-c2cccnc2)c(C(=O)N2CC[C@H](C)[C@H]2c2nc3c(C)c(Cl)ccc3[nH]2)c1F [Ex. 4.173]
37 | 5.65 | 7.03 | Cc1ccc(-c2ncccn2)c(C(=O)N2CC[C@H](C)[C@H]2c2nc3cc(C)c(C)cc3[nH]2)c1 [Ex. 4.183]
38 | 5.97 | 7.82 | Cc1ccc(-c2ncccn2)c(C(=O)N2CC[C@H](C)[C@H]2c2nc3c(C)c(Cl)ccc3[nH]2)c1F [Ex. 4.176]
39 | 6.29 | 7.34 | Cc1ccc(-n2nccn2)c(C(=O)N2CCC[C@@]2(C)c2nc3c(F)c(F)ccc3[nH]2)c1 [Ex. 5.27]
40 | 6.38 | 7.54 | Cc1ccc(-n2nccn2)c(C(=O)N2CCC[C@@]2(C)c2nc3cc(Cl)ccc3[nH]2)c1 [Ex. 5.11]
41 | 6.46 | 8.15 | Cc1ccc(-c2ncccn2)c(C(=O)N2CC[C@H](C)[C@H]2c2nc3c(C)c(Cl)ccc3[nH]2)c1 [Ex. 4.178]
42 | 6.52 | 8.10 | Cc1ccc(-c2ncccn2)c(C(=O)N2CC[C@H](C)[C@H]2c2nc3cc(Cl)c(C)cc3[nH]2)c1 [Ex. 4.180]
43 | 6.60 | 7.85 | Cc1c(Cl)ccc2[nH]c([C@@H]3[C@@H](C)CCN3C(=O)c3cc(F)ccc3-c3ncccn3)nc12 [Ex. 4.175]
44 | 6.79 | 7.24 | Cc1ccc(-n2nccn2)c(C(=O)N2CCC[C@@]2(C)c2nc3cc(SC(F)(F)F)ccc3[nH]2)c1 [Ex. 5.30]
45 | 6.89 | 7.89 | Cc1ccc(-n2nccn2)c(C(=O)N2CCC[C@@]2(C)c2nc3cc(Br)ccc3[nH]2)c1 [Ex. 5.8]
46 | 7.07 | 8.15 | Cc1ccc(-n2nccn2)c(C(=O)N2CCC[C@@]2(C)c2nc3cc(C(F)(F)F)c(F)cc3[nH]2)c1 [Ex. 5.22]
47 | 7.08 | 7.64 | Cc1ccc(-n2nccn2)c(C(=O)N2CCC[C@@]2(C)c2nc3c(Br)cccc3[nH]2)c1 [Ex. 5.18]
48 | 7.09 | 7.57 | Cc1ccc(-n2nccn2)c(C(=O)N2CCC[C@@]2(C)c2nc3c(Br)cc(F)cc3[nH]2)c1 [Ex. 5.25]
49 | 7.12 | 7.31 | Cc1c(Cl)ccc2[nH]c([C@]3(C)CCCN3C(=O)c3ccccc3-n3cccn3)nc12 [Ex. 5.42]
50 | 7.16 | 7.57 | COc1cc2nc([C@@H]3[C@@H](C)CCN3C(=O)c3cc(C)ccc3-c3ncccn3)[nH]c2cc1OC [Ex. 4.179]
51 | 7.51 | 8.22 | Cc1ccc(-n2nccn2)c(C(=O)N2CCC[C@@]2(C)c2nc3cc(C(C)(C)C)ccc3[nH]2)c1 [Ex. 5.13]
52 | 7.51 | 8.22 | Cc1ccc(-n2nccn2)c(C(=O)N2CCC[C@@]2(C)c2nc3c(Cl)cc(C(F)(F)F)cc3[nH]2)c1 [Ex. 5.14]
53 | 7.54 | 8.30 | Cc1ccc(-n2nccn2)c(C(=O)N2CCC[C@@]2(C)c2nc3cc(Cl)c(Cl)cc3[nH]2)c1 [Ex. 5.7]
54 | 7.54 | 8.10 | Cc1ccc(-n2cccn2)c(C(=O)N2CCC[C@@]2(C)c2nc3c(C)c(Cl)ccc3[nH]2)n1 [Ex. 5.44]
55 | 7.60 | 7.92 | Cc1c(Cl)ccc2[nH]c([C@]3(C)CCCN3C(=O)c3c(F)cccc3-n3nccn3)nc12 [Ex. 5.48]
56 | 7.64 | 7.62 | Cc1cc2nc([C@]3(C)CCCN3C(=O)c3cc(Cl)ccc3-n3nccn3)[nH]c2cc1C [Ex. 5.53]
57 | 7.74 | 8.00 | Cc1cc(C(=O)N2CCC[C@@]2(C)c2nc3c(C)cccc3[nH]2)c(-n2nccn2)cc1C [Ex. 5.51]
58 | 7.80 | 8.22 | Cc1ccc(-n2nccn2)c(C(=O)N2CCC[C@@]2(C)c2nc3cc(C)c(C)cc3[nH]2)c1 [Ex. 5.10]
59 | 8.22 | 8.00 | Cc1nc(C(=O)N2CCC[C@@]2(C)c2nc3c(C)cccc3[nH]2)c(-c2cccc(Cl)c2)s1 [Ex. 5.4]
60 | 8.30 | 8.52 | Cc1nc(C(=O)N2CCC[C@@]2(C)c2nc3c(C)c(Cl)ccc3[nH]2)c(-c2cccc(Cl)c2)s1 [Ex. 5.5]
61 | 8.40 | 8.70 | Cc1nc(C(=O)N2CCC[C@@]2(C)c2nc3c(C)c(Cl)ccc3[nH]2)c(-c2ccccc2)s1 [Ex. 5.3]
